Test results as given in ChEMBL document CHEMBL1123019, “N-phenylpiperazine derivatives with hypocholesterolemic activity” (J Med Chem, 1985).

Assays:
Mus musculus [1] = test: Dose required for 50% reduction of spontaneous locomotory activity in mice when administered orally; assay type: functional; details: po
[2] = Dose required for 50% lethality after intraperitoneal administration in mice; assay type: ADME, organism-based; details: mouse, in vivo, ip
Rattus norvegicus [3] = test: Dose required for 50% reduction of plasma cholesterol in rat when administered orally (200 mg/kg maximal administered dose); assay type: functional; details: po
Rattus norvegicus [4] = test: Dose required for 50% reduction of plasma cholesterol in rat when administered orally.; assay type: functional; details: po
Mus musculus [5] = test: Dose required for 50% reduction of spontaneous locomotory activity in mice when administered orally (120 mg/kg is maximal dose administered); assay type: functional; details: po
Rattus norvegicus [6] = test: Percent increase in liver weight in plasma was evaluated 10 mg/kg in rat; assay type: functional
Rattus norvegicus [7] = test: Percent reduction of phospholipid level in plasma was evaluated 10 mg/kg in rat; assay type: functional
Rattus norvegicus [8] = test: Percent reduction of phospholipid level in plasma was evaluated 100 mg/kg in rat; assay type: functional
Rattus norvegicus [9] = test: Percent reduction of phospholipid level in plasma was evaluated 30 mg/kg in rat; assay type: functional
Rattus norvegicus [10] = test: Percent reduction of total cholesterol level in plasma was evaluated at dose 10 mg/kg in rat; assay type: functional
Rattus norvegicus [11] = test: Percent reduction of triglyceride level in plasma was evaluated 30 mg/kg in rat; assay type: functional
Rattus norvegicus [12] = test: Percent reduction of total cholesterol level in plasma was evaluated at dose 100 mg/kg in rat; assay type: functional
Rattus norvegicus [13] = test: Percent reduction of total cholesterol level in plasma was evaluated at dose 3 mg/kg in rat; assay type: functional
Rattus norvegicus [14] = test: Percent reduction of total cholesterol level in plasma was evaluated at dose 30 mg/kg in rat; assay type: functional
Rattus norvegicus [15] = test: Percent reduction of triglyceride level in plasma was evaluated 10 mg/kg in rat; assay type: functional
Rattus norvegicus [16] = test: Percent increase in liver weight in plasma was evaluated 100 mg/kg in rat; assay type: functional
Rattus norvegicus [17] = test: Percent increase in liver weight in plasma was evaluated 30 mg/kg in rat; assay type: functional
Rattus norvegicus [18] = test: Percent reduction of triglyceride level in plasma was evaluated 100 mg/kg in rat; assay type: functional
Rattus norvegicus [19] = test: Percent increase in liver weight in plasma was evaluated 12.5 mg/kg in rat; assay type: functional
Rattus norvegicus [20] = test: Percent increase in liver weight in plasma was evaluated 25 mg/kg in rat; assay type: functional
Rattus norvegicus [21] = test: Percent increase in liver weight in plasma was evaluated 50 mg/kg in rat; assay type: functional
Rattus norvegicus [22] = test: Percent reduction of phospholipid level in plasma was evaluated 12.5 mg/kg in rat; assay type: functional
Rattus norvegicus [23] = test: Percent reduction of phospholipid level in plasma was evaluated 25 mg/kg in rat; assay type: functional
Rattus norvegicus [24] = test: Percent reduction of triglyceride level in plasma was evaluated 12.5 mg/kg in rat; assay type: functional
Rattus norvegicus [25] = test: Percent reduction of triglyceride level in plasma was evaluated 25 mg/kg in rat; assay type: functional
Rattus norvegicus [26] = test: Percent reduction of triglyceride level in plasma was evaluated 300 mg/kg; in rat; assay type: functional
Rattus norvegicus [27] = test: Percent reduction of triglyceride level in plasma was evaluated 50 mg/kg in rat; assay type: functional
Rattus norvegicus [28] = test: Percent reduction of total cholesterol level in plasma was evaluated at dose 12.5 mg/kg in rat; assay type: functional
Rattus norvegicus [29] = test: Percent reduction of total cholesterol level in plasma was evaluated at dose 25 mg/kg in rat; assay type: functional
Rattus norvegicus [30] = test: Percent reduction of total cholesterol level in plasma was evaluated at dose 300 mg/kg in rat; assay type: functional
Rattus norvegicus [31] = test: Percent reduction of total cholesterol level in plasma was evaluated at dose 50 mg/kg in rat; assay type: functional
Rattus norvegicus [32] = test: Percent increase in liver weight in plasma was evaluated 300 mg/kg in rat; assay type: functional
Mus musculus [33] = test: Dose required for 50% reduction of spontaneous locomotory activity in mice when administered orally (100 mg/kg is maximal dose administered); assay type: functional; details: po
Rattus norvegicus [34] = test: Dose required for 50% reduction of plasma cholesterol in rat when administered orally.(100 mg/kg is maximal dose administered); assay type: functional; details: po
Mus musculus [35] = test: Dose required for 50% reduction of spontaneous locomotory activity in mice when administered orally (200 mg/kg maximal administered dose); assay type: functional; details: po
Rattus norvegicus [36] = test: Dose required for 50% reduction of plasma cholesterol in rat when administered orally (100 mg/kg maximal administered dose); assay type: functional; details: po
Rattus norvegicus [37] = test: Dose required for 50% reduction of plasma cholesterol in rat when administered orally; assay type: functional; details: po
Mus musculus [38] = test: Dose required for 50% reduction of spontaneous locomotory activity in mice when administered orally (200 mg/kg is maximal dose administered); assay type: functional; details: po
Rattus norvegicus [39] = test: Dose required for 50% reduction of plasma cholesterol in rat when administered orally. (100 mg/kg is maximal dose administered); assay type: functional; details: po
Rattus norvegicus [40] = test: Dose required for 50% reduction of plasma cholesterol in rat when administered orally (45 mg/kg maximal administered dose); assay type: functional; details: po
Rattus norvegicus [41] = test: Percent reduction of phospholipid level in plasma was evaluated 300 mg/kg in rat; assay type: functional
Rattus norvegicus [42] = test: Percent reduction of total cholesterol level in plasma was evaluated 100 mg/kg in rat; assay type: functional
Rattus norvegicus [43] = test: Percent reduction of total cholesterol level in plasma was evaluated 300 mg/kg in rat; assay type: functional
Rattus norvegicus [44] = test: Percent reduction of triglyceride level in plasma was evaluated 300 mg/kg in rat; assay type: functional

## CC(C)(C)NC(=O)OC(CCN1CCN(c2ccccc2)CC1)C(=O)c1ccc(F)cc1 (stereo unspecified)
Mus musculus [1]
  ED50: 200 mg/kg
[2]
  LD50: > 1000 mg/kg
Rattus norvegicus [3]
  ED50: 18 mg/kg

## CC(=O)OC(CCN1CCN(c2ccccc2)CC1)C(=O)c1ccc(F)cc1.O=C(O)/C=C/C(=O)O (stereo unspecified)
Mus musculus [1]
  ED50: 56 mg/kg
[2]
  LD50: 575 mg/kg
Rattus norvegicus [4]
  ED50: 100 mg/kg

## Cl.O=c1oc(CCN2CCN(c3cccc(Cl)c3)CC2)c(-c2ccc(F)cc2)o1
Mus musculus [1]
  ED50: 46 mg/kg
[2]
  LD50: 500 mg/kg

## Cl.O=c1oc(CCN2CCN(c3ccccc3)CC2)c(-c2ccc(Cl)cc2)o1
Mus musculus [5]
  ED50: 31 mg/kg
[2]
  LD50: 865 mg/kg
Rattus norvegicus [4]
  ED50: 11.3 mg/kg
Rattus norvegicus [6]
  Increase: 3%
Rattus norvegicus [7]
  Reduction: 14%
Rattus norvegicus [8]
  Reduction: 83%
Rattus norvegicus [9]
  Reduction: 58%
Rattus norvegicus [10]
  Reduction: 48%
Rattus norvegicus [11]
  Reduction: 22%
Rattus norvegicus [12]
  Reduction: 100%
Rattus norvegicus [13]
  Reduction: 16%
Rattus norvegicus [14]
  Reduction: 72%
Rattus norvegicus [15]
  Reduction: 15%
Rattus norvegicus [16]
  Increase: 28%
Rattus norvegicus [17]
  Increase: 13%
Rattus norvegicus [18]
  Reduction: 63%

## Cc1ccc(-c2oc(=O)oc2CCN2CCN(c3ccccc3)CC2)cc1.Cl
[2]
  LD50: > 1000 mg/kg
Rattus norvegicus [4]
  ED50: 80 mg/kg

## Cl.O=c1oc(CCN2CCN(c3ccccc3)CC2)c(-c2ccc(F)cc2)o1
Mus musculus [1]
  ED50: 100 mg/kg
[2]
  LD50: 936 mg/kg
Rattus norvegicus [4]
  ED50: 18.6 mg/kg
Rattus norvegicus [19]
  Increase: 9%
Rattus norvegicus [20]
  Increase: 12%
Rattus norvegicus [21]
  Increase: 12%
Rattus norvegicus [8]
  Reduction: 75%
Rattus norvegicus [22]
  Reduction: 19%
Rattus norvegicus [23]
  Reduction: 52%
Rattus norvegicus [24]
  Reduction: 12%
Rattus norvegicus [25]
  Reduction: 20%
Rattus norvegicus [26]
  Reduction: 82%
Rattus norvegicus [27]
  Reduction: 36%
Rattus norvegicus [12]
  Reduction: 85%
Rattus norvegicus [28]
  Reduction: 39%
Rattus norvegicus [29]
  Reduction: 57%
Rattus norvegicus [30]
  Reduction: 97%
Rattus norvegicus [31]
  Reduction: 76%
Rattus norvegicus [16]
  Increase: 33%
Rattus norvegicus [32]
  Increase: 43%
Rattus norvegicus [18]
  Reduction: 27%

## Cl.O=c1oc(CCN2CCN(c3cc(Cl)cc(Cl)c3)CC2)c(-c2ccc(F)cc2)o1
Mus musculus [33]
  ED50: 16 mg/kg
[2]
  LD50: > 1000 mg/kg
Rattus norvegicus [34]
  ED50: 5 mg/kg

## Cl.O=c1oc(CCN2CCN(c3ccccc3)CC2)c(-c2ccccc2)o1
Mus musculus [1]
  ED50: 50 mg/kg
[2]
  LD50: 500 mg/kg
Rattus norvegicus [4]
  ED50: 50 mg/kg

## COc1cc(C(=O)OC(CCN2CCN(c3ccccc3)CC2)C(=O)c2ccc(F)cc2)cc(OC)c1OC.Cl (stereo unspecified)
Mus musculus [35]
  ED50: 13 mg/kg
[2]
  LD50: > 1000 mg/kg
Rattus norvegicus [36]
  ED50: 21 mg/kg

## Cl.O=C(c1ccc(F)cc1)C(O)CCN1CCN(c2ccccc2)CC1 (stereo unspecified)
Mus musculus [1]
  ED50: 35 mg/kg
[2]
  LD50: > 1000 mg/kg
Rattus norvegicus [4]
  ED50: 50 mg/kg

## Cl.O=c1oc(CCN2CCN(c3cccc(C(F)(F)F)c3)CC2)c(-c2ccc(F)cc2)o1
Mus musculus [1]
  ED50: 200 mg/kg
[2]
  LD50: 1000 mg/kg

## CSc1ccc(-c2oc(=O)oc2CCN2CCN(c3ccccc3)CC2)cc1.Cl
Mus musculus [1]
  ED50: 200 mg/kg
[2]
  LD50: > 1000 mg/kg
Rattus norvegicus [34]
  ED50: 15 mg/kg

## Cl.O=c1oc(CCCN2CCN(c3ccccc3)CC2)c(-c2ccc(F)cc2)o1
Rattus norvegicus [37]
  ED50: 50 mg/kg

## Cl.O=c1oc(CCN2CCN(c3ccccc3)CC2)c(-c2ccc(-c3ccccc3)cc2)o1
Mus musculus [38]
  ED50: 29 mg/kg
[2]
  LD50: > 1000 mg/kg

## Cl.O=c1oc(CCN2CCN(c3ccc(Cl)c(Cl)c3)CC2)c(-c2ccc(F)cc2)o1
Mus musculus [1]
  ED50: 120 mg/kg
Rattus norvegicus [39]
  ED50: 20 mg/kg

## Cl.O=c1oc(CCN2CCN(c3ccc(Cl)cc3)CC2)c(-c2ccc(Cl)cc2)o1
[2]
  LD50: > 1000 mg/kg
Rattus norvegicus [34]
  ED50: 8 mg/kg

## COc1ccc(-c2oc(=O)oc2CCN2CCN(c3ccccc3)CC2)cc1.Cl
Mus musculus [1]
  ED50: 75 mg/kg
[2]
  LD50: > 1000 mg/kg
Rattus norvegicus [34]
  ED50: 25 mg/kg

## COc1ccccc1N1CCN(CCc2oc(=O)oc2-c2ccc(F)cc2)CC1.Cl
Mus musculus [1]
  ED50: 47 mg/kg
[2]
  LD50: 350 mg/kg
Rattus norvegicus [39]
  ED50: 25 mg/kg

## CN(C)C(=O)OC(CCN1CCN(c2ccccc2)CC1)C(=O)c1ccc(F)cc1.Cl (stereo unspecified)
Mus musculus [1]
  ED50: 30 mg/kg
[2]
  LD50: 150 mg/kg
Rattus norvegicus [40]
  ED50: 35 mg/kg

## CCOC(=O)C(C)(C)Oc1ccc(Cl)cc1 [CLOFIBRATE]
Rattus norvegicus [8]
  Reduction: 23%
Rattus norvegicus [41]
  Reduction: -11%
Rattus norvegicus [42]
  Reduction: 46%
Rattus norvegicus [43]
  Reduction: 43%
Rattus norvegicus [11]
  Reduction: 20%
Rattus norvegicus [14]
  Reduction: 31%
Rattus norvegicus [16]
  Reduction: 21%
Rattus norvegicus [17]
  Increase: 3%
Rattus norvegicus [32]
  Increase: 51%
Rattus norvegicus [18]
  Reduction: 7%
Rattus norvegicus [44]
  Reduction: -39%
